Experimental data reported in patent US11677091B2, “Use of quaternary ammonium salt-type anthraquinone-based active material and salt cavern organic aqueous redox flow battery” (CHINA SALT JINTAN CO., LTD., priority 2020, dated 2023).

Test: Electrochemical characterization of the active material (rotating disk electrode, diffusion coefficient, charge transfer rate constant)
Assay type: physicochemical
Details: on a graphite felt electrode
Source text: FIG. 2 to FIG. 9 show the characterization of electrochemical performances of the prepared active material.

charge transfer rate constant: 0.00302 cm/s
diffusion coefficient: 3.94×10^−6 cm^2/s
SMILES: C[N+](C)(C)CCCOc1cccc2c1C(=O)c1c(OCCC[N+](C)(C)C)cccc1C2=O [Embodiment 1]
